This passage reports Ki results from US10233188B2, “CDK2/4/6 inhibitors” (priority 2016, dated 2019).

The target of the first experiment is CDK6/Cyclin D1 (Homo sapiens (Human), UniProt Q00534). Nature of the experiment: biochemical. Particulars: CDK6_Ki (nM), non-phosphorylated CDK6/Cyclin D1, 2 mM ATP, Morrison fit.
Chain of CDK6/Cyclin D1 (Q00534 whole entry): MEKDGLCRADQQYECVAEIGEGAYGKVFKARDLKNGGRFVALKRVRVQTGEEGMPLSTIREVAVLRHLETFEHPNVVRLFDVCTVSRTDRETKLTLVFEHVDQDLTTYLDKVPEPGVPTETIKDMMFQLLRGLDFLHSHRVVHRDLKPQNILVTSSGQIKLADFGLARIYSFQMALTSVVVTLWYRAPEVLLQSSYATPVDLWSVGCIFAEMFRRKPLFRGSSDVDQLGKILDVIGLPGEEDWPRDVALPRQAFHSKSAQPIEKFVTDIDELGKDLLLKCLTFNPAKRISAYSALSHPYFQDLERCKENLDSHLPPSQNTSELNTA
Chain of CDK6/Cyclin D1 (P24385 whole entry partner): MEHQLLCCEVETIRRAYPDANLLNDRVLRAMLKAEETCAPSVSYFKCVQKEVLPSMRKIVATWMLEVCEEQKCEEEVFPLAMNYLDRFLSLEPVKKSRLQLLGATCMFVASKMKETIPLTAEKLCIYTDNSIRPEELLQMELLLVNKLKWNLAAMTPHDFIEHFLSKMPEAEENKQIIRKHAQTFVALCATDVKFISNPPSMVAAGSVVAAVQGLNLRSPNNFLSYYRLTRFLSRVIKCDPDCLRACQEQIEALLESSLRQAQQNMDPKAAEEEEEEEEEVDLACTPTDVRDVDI
The Ki is a dissociation constant, usually derived from enzyme kinetics or from competition with a known ligand. In the case of `CS(=O)(=O)N1CCC(Nc2ncc3cc(C(F)F)c(=O)n([C@H]4CC[C@H](O)C4)c3n2)CC1` (relative stereo) [Example 134, (+)-6-(difluoromethyl)-8-[(1R*,3R*)-3-hydroxycyclopentyl]-2-{[1-(methylsulfonyl)piperidin-4-yl]amino}pyrido[2,3-d]pyrimidin-7(8H)-one], the affinity, expressed as Ki, was 0.53 nM.

Compound `C[C@@]1(O)CCC[C@H]1n1c(=O)c(F)cc2cnc(NC3CCN(S(C)(=O)=O)CC3)nc21` (single isomer, unassigned) [Example 5, (+)-6-fluoro-8-[(1R*,2R*)-2-hydroxy-2-methylcyclopentyl]-2-{[1-(methylsulfonyl)piperidin-4-yl]amino}pyrido[2,3-d]pyrimidin-7(8H)-one] had an inhibitory constant (Ki) of 13.1 nM.

Compound `Cc1cc2cnc(NC3CCN(S(C)(=O)=O)CC3)nc2n([C@@H]2CCC[C@@H](O)C2)c1=O` (single isomer, unassigned) [Example 32, (+)-8-[(1R*,3R*)-3-hydroxycyclohexyl]-6-methyl-2-{[1-(methylsulfonyl)piperidin-4-yl]amino}pyrido[2,3-d]pyrimidin-7(8H)-one] registered a Ki of 1.1 nM.

In turn, `CS(=O)(=O)N1CCC(Nc2ncc3cc(Cl)c(=O)n([C@@H]4CCC[C@@H](O)C4)c3n2)CC1` (single isomer, unassigned) [Example 34, (+)-6-chloro-8-[(1R*,3R*)-3-hydroxycyclohexyl]-2-{[1-(methylsulfonyl)piperidin-4-yl]amino}pyrido[2,3-d]pyrimidin-7(8H)-one] registered a Ki of 0.42 nM.

Turning to `CS(=O)(=O)N1CC[C@H](Nc2ncc3cc(Cl)c(=O)n(C4CCCC4)c3n2)[C@H](F)C1` (single isomer, unassigned) [Example 152, (−)-6-chloro-8-cyclopentyl-2-{[(3R*,4S*)-3-fluoro-1-(methylsulfonyl)piperidin-4-yl]amino}pyrido[2,3-d]pyrimidin-7(8H)-one], affinity was put at a Ki of 0.43 nM.

As to `CS(=O)(=O)N1CC[C@@H](Nc2ncc3cc(Cl)c(=O)n(C4CCCC4)c3n2)[C@@H](F)C1` (single isomer, unassigned) [Example 153, (+)-6-chloro-8-cyclopentyl-2-{[(3R*,4S*)-3-fluoro-1-(methylsulfonyl)piperidin-4-yl]amino}pyrido[2,3-d]pyrimidin-7(8H)-one], the affinity, expressed as Ki, was 2.23 nM.

Consider `CS(=O)(=O)N1CC[C@H](Nc2ncc3cc(Cl)c(=O)n(C4CCCC4)c3n2)[C@@H](F)C1` (single isomer, unassigned) [Example 154, (−)-6-chloro-8-cyclopentyl-2-{[(3S*,4S*)-3-fluoro-1-(methylsulfonyl)piperidin-4-yl]amino}pyrido[2,3-d]pyrimidin-7(8H)-one], for which the Ki turned out to be 0.27 nM.

`CS(=O)(=O)N1CC[C@@H](Nc2ncc3cc(Cl)c(=O)n(C4CCCC4)c3n2)[C@H](F)C1` (single isomer, unassigned) [Example 155, (+)-6-chloro-8-cyclopentyl-2-{[(3S*,4S*)-3-fluoro-1-(methylsulfonyl)piperidin-4-yl]amino}pyrido[2,3-d]pyrimidin-7(8H)-one] returned a Ki of 2.26 nM.

As to `CS(=O)(=O)N1CC[C@@H](Nc2ncc3cc(N)c(=O)n(C4CCCC4)c3n2)[C@@H](F)C1` (single isomer, unassigned; isomer a) [Example 151, 6-amino-8-cyclopentyl-2-{[(3R*,4S*)-3-fluoro-1-(methylsulfonyl)piperidin-4-yl]amino}pyrido[2,3-d]pyrimidin-7(8H)-one-Isomer A], the affinity, expressed as Ki, was 7.29 nM.

The target of another experiment is CDK2/Cyclin E1 (Homo sapiens (Human), UniProt P24941). Nature of the experiment: biochemical. Particulars: CDK2_Ki (nM), phosphorylated CDK2/Cyclin E1, 150 μM ATP, Morrison tight-binding fit.
Description: The assay was initiated with the addition of ATP, following a fifteen minutes pre-incubation of enzyme and inhibitor at room temperature in the reaction mixture. The reaction was stopped after 45 minutes at room temperature by the addition of 50 μL of 80 mM EDTA, pH 7.5.
For `CS(=O)(=O)N1CCC(Nc2ncc3cc(C(F)F)c(=O)n([C@H]4CC[C@H](O)C4)c3n2)CC1` (relative stereo) [Example 134, (+)-6-(difluoromethyl)-8-[(1R*,3R*)-3-hydroxycyclopentyl]-2-{[1-(methylsulfonyl)piperidin-4-yl]amino}pyrido[2,3-d]pyrimidin-7(8H)-one], the affinity corresponds to a Ki of 1.25 nM.

`C[C@@]1(O)CCC[C@H]1n1c(=O)c(F)cc2cnc(NC3CCN(S(C)(=O)=O)CC3)nc21` (single isomer, unassigned) [Example 5, (+)-6-fluoro-8-[(1R*,2R*)-2-hydroxy-2-methylcyclopentyl]-2-{[1-(methylsulfonyl)piperidin-4-yl]amino}pyrido[2,3-d]pyrimidin-7(8H)-one] came in with a Ki of 4.75 nM.

`Cc1cc2cnc(NC3CCN(S(C)(=O)=O)CC3)nc2n([C@@H]2CCC[C@@H](O)C2)c1=O` (single isomer, unassigned) [Example 32, (+)-8-[(1R*,3R*)-3-hydroxycyclohexyl]-6-methyl-2-{[1-(methylsulfonyl)piperidin-4-yl]amino}pyrido[2,3-d]pyrimidin-7(8H)-one] registered a Ki of 0.84 nM.

`CS(=O)(=O)N1CCC(Nc2ncc3cc(Cl)c(=O)n([C@@H]4CCC[C@@H](O)C4)c3n2)CC1` (single isomer, unassigned) [Example 34, (+)-6-chloro-8-[(1R*,3R*)-3-hydroxycyclohexyl]-2-{[1-(methylsulfonyl)piperidin-4-yl]amino}pyrido[2,3-d]pyrimidin-7(8H)-one] registered a Ki of 1.34 nM.

As to `Cc1cc2cnc(NC3CCN(S(=O)(=O)N(C)C)CC3)nc2n(C2CCCC2)c1=O` [Example 24, 4-[(8-cyclopentyl-6-methyl-7-oxo-7,8-dihydropyrido[2,3-d]pyrimidin-2-yl)amino]-N,N-dimethylpiperidine-1-sulfonamide], the affinity corresponds to a Ki of 1.59 nM.

`Cc1cc2cnc(NC3CCN(S(=O)(=O)C(F)F)CC3)nc2n(C2CCCC2)c1=O` [Example 26, 8-cyclopentyl-2-({1-[(difluoromethyl)sulfonyl]piperidin-4-yl}amino)-6-methylpyrido[2,3-d]pyrimidin-7(8H)-one] had a Ki of 3.84 nM.

`CN(C)S(=O)(=O)N1CCC(Nc2ncc3cc(CCO)c(=O)n(C4CCCC4)c3n2)CC1` [Example 27, 4-{[8-cyclopentyl-6-(2-hydroxyethyl)-7-oxo-7,8-dihydropyrido[2,3-d]pyrimidin-2-yl]amino}-N,N-dimethylpiperidine-1-sulfonamide] registered a Ki of 3.85 nM.

`C[C@@H]1CCC[C@@H]1n1c(=O)c(Cl)cc2cnc(NC3CCN(S(C)(=O)=O)CC3)nc21` [Example 39, 6-chloro-8-[(1S,2R)-2-methylcyclopentyl]-2-{[1-(methylsulfonyl)piperidin-4-yl]amino}pyrido[2,3-d]pyrimidin-7(8H)-one] yielded an inhibition constant (Ki) of 1.28 nM.

With `CNS(=O)(=O)N1CCC(Nc2ncc3cc(C)c(=O)n([C@H]4CCC[C@H]4C)c3n2)CC1` [Example 43, N-methyl-4-({6-methyl-8-[(1S,2R)-2-methylcyclopentyl]-7-oxo-7,8-dihydropyrido[2,3-d]pyrimidin-2-yl}amino)piperidine-1-sulfonamide], the inhibitory constant (Ki) is 1.56 nM.

For `CNS(=O)(=O)N1CCC(Nc2ncc3ccc(=O)n([C@H]4CCC[C@H]4C)c3n2)CC1` [Example 45, N-methyl-4-({8-[(1S,2R)-2-methylcyclopentyl]-7-oxo-7,8-dihydropyrido[2,3-d]pyrimidin-2-yl}amino)piperidine-1-sulfonamide], affinity was put at a Ki of 0.93 nM.

Take `CNS(=O)(=O)N1CCC(Nc2ncc3cc(C)c(=O)n([C@@H]4CCC[C@H]4O)c3n2)CC1` [Example 55, 4-({8-[(1R,2R)-2-hydroxycyclopentyl]-6-methyl-7-oxo-7,8-dihydropyrido[2,3-d]pyrimidin-2-yl}amino)-N-methylpiperidine-1-sulfonamide]: the Ki was determined as 4.66 nM.

In turn, `C=Cc1cc2cnc(NC3CCN(S(C)(=O)=O)CC3)nc2n(C2CCCC2)c1=O` [Example 138, 8-cyclopentyl-6-ethenyl-2-{[1-(methylsulfonyl)piperidin-4-yl]amino}pyrido[2,3-d]pyrimidin-7(8H)-one] had a Ki of 0.87 nM.

For `C=CCc1cc2cnc(NC3CCN(S(C)(=O)=O)CC3)nc2n(C2CCCC2)c1=O` [Example 139, 8-cyclopentyl-2-{[1-(methylsulfonyl)piperidin-4-yl]amino}-6-(prop-2-en-1-yl)pyrido[2,3-d]pyrimidin-7(8H)-one], the inhibition constant Ki came out at 4.05 nM.

Take `CS(=O)(=O)N1CCC(Nc2ncc3cc(CC(F)F)c(=O)n(C4CCCC4)c3n2)CC1` [Example 149, 8-cyclopentyl-6-(2,2-difluoroethyl)-2-{[1-(methylsulfonyl)piperidin-4-yl]amino}pyrido[2,3-d]pyrimidin-7(8H)-one]: the affinity, expressed as Ki, was 2.29 nM.

On to `C[C@H]1CC[C@@H](O)C[C@@H]1n1c(=O)ccc2cnc(NC3CCN(S(C)(=O)=O)CC3)nc21` [Example 216, 8-[(1S,2S,5R)-5-hydroxy-2-methylcyclohexyl]-2-{[1-(methylsulfonyl)piperidin-4-yl]amino}pyrido[2,3-d]pyrimidin-7(8H)-one], for which the inhibitory constant (Ki) came to 1.48 nM.
